Measured values as given in patent US20040029208A1, “Assay method and kit for testing biological material for exposure to stress using biomarkers” (priority 2000, published 2004).

Key:
Type in all cases: in vivo
[1] = system: Lólium perénne; assay: TLC plant biomarker pattern after herbicide spraying (greenhouse); conditions: Roundup Bio; Lólium perénne
Procedure: (§1) The experiments were performed in the green-house at the National Environmental Research Institute, Silkeborg, Denmark. All the seeds needed light to germinate, and were sown at the soil surface in individual 11 cm pots. The soil used during the experiments contained: (SM Growing Mould (Growing medium by special soil (sphagnum) added clay granulate), 0-30 mm; grade of turnover 55-75; added per m^3: 3 kg lime (white chalk), 1.5 kg dolit chalk, 40 kg clay granulate; Fertilizer added granulate: NO3-N: 55.0 g; NH4-N: 65.0 g; P: 106.6 g; K: 224.0 g; Mg: 22 g; Micro nutrients added in chelate form, Mo in uorganic form: B-Boron: 1 g; Cu-copper: 6 g; Mn-Manganese: 3 g; Zinc-Zn: 3 g: Fe-iron: 6 g; Mo- molybdenum: 1.4 g).
(§2) During the experiments plants were watered from below, and the temperature in the green-house was maintained between 15° C. and 25° C. with variations due to external weather, and the photoperiod was 16th daylight. The green-house is divided into different units, which allowed for the separate maintenance of the control plants from the sprayed plants to avoid undesirable effects due to vapour drift.
(§3) Glyphosate (Roundup Bio (360 g L^−1) was supplied by Monsanto Denmark A/S. Recommended field dose=1,44 kg a.i. ha^−1. In all the experiments, an automatic sprayer (designed in Denmark by Jens Kristensen 1994) was used where the herbicide application is achieved by moving boom equipment with two ordinary hydraulic flat fan nozzles (Hardi 4110-16). Two pots per spray event were placed in the middle of the spray chamber at 50 cm distance from the nozzle, delivering 200 L of water per-hectare with a desired herbicide concentration (working pressure 2 bars; speed of spray boom=4.7 km h^−1). The spraying was performed starting with the lowest concentration first, progressing towards the highest concentration. Between each herbicide, the sprayer was thoroughly rinsed several times with water. The control plants were sprayed with water.
(§4) The fresh plant material was pressed using a hand press. The extract was immediately centrifuged. (3000 rpm) for 10 minutes. The supernatant was used for analysis. The extracts were kept cool or right above 0° C. during the test to avoid decomposition of biomarkers.
(§5) Freeze-dried plant material was crushed and 250 mg was extracted with 5.00 ml 75% ethanol in an ultrasonic bath for 2 hours. The temperature was kept <0° C. (using ice) during the extraction to avoid decomposition of biomarkers. The extract was centrifuged (3000 rpm) for 10 minutes. The supematant was used for analysis and were kept cool during the test to avoid decomposition of biomarkers.
(§6) The two extracts (freshtfresh ethanol) were applicated immediately on a TLC plate (10 μl on both TLC-Plate types (see below) using cool air-drying. The 75% ethanolic extract was applicated 10 μl on Silica-gel TLC-plates and 5 μl on Cellulose TLC-plates (see below). The fresh/fresh ethanolic extractsare recommended to perform if fresh plant material are to be analysed (field-test). The freeze-dried or frozen plant material extraction Is recommended if the analysis are performed in the laboratory.
(§7) TLC-System 1: HPTLC-Alufolie Silica Gel 60 F254, Merck 1.05548 (10×10 cm); 10 μl plant extracts plants exposed to glyphosate and control plants; eluted in n-butanol acetic acid: water (4:1:5) (upper phase after 5 minutes shaking). Derivatisation: Stock solution 1:50% sulfuric acid in 96% ethanol; Stock solution 2: 2% vanillin in absolut alcohol; Derivatisation-solvent, Fresh produced before us, stock solution 1 and stock solution 2 (1:10); Aftercare: 120° C. in 2-3 min. The plate is valuated visually. The system detects higher alcoholics, phenolic compounds, steroids and etheric oils (Stahl 1969), terpenoids, phenyl propanolds, phenolic compounds (Wagner etea. 1984) […]

[2] = system: Plantágo lanceoláta; assay: as above
Procedure: as §1, §2, §3, §4, §5, §6, §7

[3] = system: Leonorus carica; assay: Visual effect rating (0-9) after Roundup Bio
Procedure: (§8) Four, eight, sixteen and thirty two days after spraying, visual effects on plants were noted before harvest, using the rating chart described in Hamil. et al. (1977) and Boutin et al. (1993); a rating of zero indicates full growth and vigour, and a rating of nine indicates no growth/mortality.
The study was performed in greenhouse between August and December 1998 for all species. Degree days (=(Present temperature in ° C.-5° C.)×amount of days) were used as time scale. The plants were 226-378 degree days (30 days) old before exposure. The plants were exposed to 0, 1. 10 and 100% of the recommended field dose of Roundup Bio. Before the harvest, the plants were evaluated for visual effects using the rating chart described in Table 1 (Hamit et al., 1977). A rating of zero indicates full growth and vigour (compared with control plants) and a rating of nine, no growth/mortality. The plants were all harvested 180 degree days (14 days) after exposure. The plants were lyophilizied and k pt dry and in dark before phytochemical analysis.
Table 2: Sensitivity of plants exposed to glyphosate (Roundup Bio), based on presence of phytochemical changes in all the TLC-Systems at lowest dose of concentration (LC) of the herbicide in percent of field dose. The corresponding visual effect (VE) Is presented (see table 1).

[4] = system: Anagallis arvensis; assay: Visual effect rating (0-9) after herbicide spraying; conditions: Roundup Bio, Anagallis arvensis
From the text: as §8
(§9) The min. visual effect (VE) of the presence of plant biomarkers is rated as described by Hamil et al., (1977) and Boutin et al. (1993).

[5] = system: Lólium perénne; assay: as above; conditions: Roundup Bio, Lólium perénne
From the text: as §8, §9

[6] = system: Anagallis arvensis; assay: TLC plant biomarker pattern after herbicide spraying (greenhouse)
Procedure: as §1, §2, §3, §4, §5, §6
[…] Derivatisation: Stock solution 1:50% sulfuric acid in 96% ethanol; Stock solution 2: 2% vanillin in absolut alcohol; Derivatisation-solvent, Fresh produced before us, stock solution 1 and stock solution 2 (1:10); Aftercare: 120° C. in 2-3 min. The plate is valuated visually. The system detects higher alcoholics, phenolic compounds, steroids and etheric oils (Stahl 1969), terpenoids, phenyl propanolds, phenolic compounds (Wagner etea. 1984)
TLC-System 7: HPTLC-Alufolie Silica Gel 60 F2u, Merck 1.05548 (10×10 cm); 10 μl plant extracts plants exposed to glyphosate and control plants; eluted in n-butanol: acetic acid: water (4:1:5) (upper phase after 5 minutes shaking). Derivatisation: 0,5 g p-anisaldehyde diluted in 10 ml conc. acetic acid and 85 ml absolute alcohol is and 5 ml conc. sulfuric acid (added in the following row). The plate is heated to. […]

[7] = system: Centauréa cýanus; assay: as above

O=C(O)CNCP(=O)(O)O [Glyphosate]
LC: lowest dose of concentration of the herbicide with phytochemical changes in all the TLC-Systems [1]: 1% of field dose
LC: lowest dose of concentration of the herbicide with phytochemical changes in all the TLC-Systems ([2]; Roundup Bio, Plantágo lanceoláta): 1% of field dose
Min. of label dose of herbicide with effect ([2]; TLC 1 (non-specific compounds)): 1%
Min. of label dose of herbicide with effect ([2]; TLC 2 (phenolic compounds)): 1%
Min. of label dose of herbicide with effect ([2]; TLC 6 (lipids and terpens)): 1%
Min. of label dose of herbicide with effect ([2]; TLC 7 (non-specific compounds)): 1%
Min. of label dose of herbicide with effect ([2]; TLC 4d (amino acids)): 1%
VE: corresponding visual effect [3]: 5
VE: corresponding visual effect [4]: 0
VE: corresponding visual effect [5]: 0
LC: lowest dose of concentration of the herbicide with phytochemical changes in all the TLC-Systems ([6]; Roundup Bio, Anagallis arvensis): 1% of field dose
Min. of label dose of herbicide with effect ([6]; TLC 1 (non-specific compounds)): 1%
Min. of label dose of herbicide with effect ([6]; TLC 6 (lipids and terpens)): 1%
Min. of label dose of herbicide with effect ([6]; TLC 4d (amino acids)): 1%
Min. of label dose of herbicide with effect ([7]; TLC 1 (non-specific compounds)): 10%
Min. of label dose of herbicide with effect ([7]; TLC 6 (lipids and terpens)): 10%
Min. of label dose of herbicide with effect ([7]; TLC 7 (non-specific compounds)): 10%
